# Results from US7632972B2, “Compounds and methods for treatment of cancer and modulation of programmed cell death for melanoma and other cancer cells” (The Board of Trustees of the University of Illionis, priority 2003, dated 2009).
# Tested on: U-937 cells
# Test: High-throughput cell death assay on library members (MTS/PMS)
# Type: cell-based, human
# Settings: library members at 100 μM, 24 hours
# Experimental: A three-tiered system was devised to identify compounds that selectively induce apoptosis in cancer cells. First, all compounds were screened at 100 μM in a high-throughput manner for their ability to induce death in two cancer cell lines, HL-60 (leukemia) and U-937 (lymphoma).
# Test compounds were transferred into the wells using a 96-pin transfer apparatus (V & P Scientific, San Diego Calif.) that transfers 0.2 μL of compound. The compounds were made up as 50 mM stock solutions in 100% EtOH, so one transfer gave a final concentration of 100 μM. Controls were performed in which only EtOH (containing no compound) was pin-transferred into wells containing cells. The cells were incubated with the compounds for 24 hours, and then cell death was quantitated.
row,Structure (SMILES),Induction of death in U-937 cells (percentages of cell death) [%]
1,CO[C@H](CNC(=O)/C=C/c1ccccc1)c1ccccc1 [Compound 8-A],70
2,CO[C@H](CNC(=O)/C=C/c1ccc(O)cc1)c1ccccc1 [Compound 8-B],34
3,CO[C@H](CNC(=O)/C=C/c1ccc(O)c(O)c1)c1ccccc1 [Compound 8-C],−5
4,COc1cc(/C=C/C(=O)NC[C@@H](OC)c2ccccc2)ccc1O [Compound 8-D],20
5,COc1ccc(/C=C/C(=O)NC[C@@H](OC)c2ccccc2)cc1O [Compound 8-E],56
6,COc1cc(/C=C/C(=O)NC[C@@H](OC)c2ccccc2)cc(OC)c1OC [Compound 8-F],31
7,COc1cc(/C=C/C(=O)NC[C@@H](OC)c2ccccc2)cc(OC)c1O [Compound 8-G],−3
8,COc1cccc(/C=C/C(=O)NC[C@@H](OC)c2ccccc2)c1 [Compound 8-H],60
9,CO[C@H](CNC(=O)/C=C/c1ccccc1)c1ccc(O)cc1 [Compound 9-A],24
10,CO[C@H](CNC(=O)/C=C/c1ccc(O)cc1)c1ccc(O)cc1 [Compound 9-B],20
11,CO[C@H](CNC(=O)/C=C/c1ccc(O)c(O)c1)c1ccc(O)cc1 [Compound 9-C],−12
12,COc1ccc(/C=C/C(=O)NC[C@@H](OC)c2ccc(O)cc2)cc1O [Compound 9-E],41
13,COc1cc(/C=C/C(=O)NC[C@@H](OC)c2ccc(O)cc2)cc(OC)c1OC [Compound 9-F],13
14,COc1cc(/C=C/C(=O)NC[C@@H](OC)c2ccc(O)cc2)cc(OC)c1O [Compound 9-G],−7
15,COc1cccc(/C=C/C(=O)NC[C@@H](OC)c2ccc(O)cc2)c1 [Compound 9-H],38
16,COc1ccc([C@@H](CNC(=O)/C=C/c2ccccc2)OC)cc1 [Compound 10-A],51
17,COc1ccc([C@@H](CNC(=O)/C=C/c2ccc(O)cc2)OC)cc1 [Compound 10-B],60
18,COc1ccc([C@@H](CNC(=O)/C=C/c2ccc(O)c(O)c2)OC)cc1 [Compound 10-C],−8
19,COc1ccc([C@@H](CNC(=O)/C=C/c2ccc(O)c(OC)c2)OC)cc1 [Compound 10-D],31
20,COc1ccc([C@@H](CNC(=O)/C=C/c2ccc(OC)c(O)c2)OC)cc1 [Compound 10-E],55
21,COc1ccc([C@@H](CNC(=O)/C=C/c2cc(OC)c(OC)c(OC)c2)OC)cc1 [Compound 10-F],45
22,COc1ccc([C@@H](CNC(=O)/C=C/c2cc(OC)c(O)c(OC)c2)OC)cc1 [Compound 10-G],16
23,COc1ccc([C@@H](CNC(=O)/C=C/c2cccc(OC)c2)OC)cc1 [Compound 10-H],72
24,CO[C@@H](CNC(=O)/C=C/c1ccccc1)c1ccc(O)cc1 [Compound 11-A],26

row,Structure (SMILES),Induction of death in U-937 cells (percentages of cell death) [%]
1,CO[C@@H](CNC(=O)/C=C/c1ccc(O)cc1)c1ccc(O)cc1 [Compound 11-B],60
2,CO[C@@H](CNC(=O)/C=C/c1ccc(O)c(O)c1)c1ccc(O)cc1 [Compound 11-C],−9
3,COc1cc(/C=C/C(=O)NC[C@H](OC)c2ccc(O)cc2)ccc1O [Compound 11-D],34
4,COc1ccc(/C=C/C(=O)NC[C@H](OC)c2ccc(O)cc2)cc1O [Compound 11-E],41
5,COc1cc(/C=C/C(=O)NC[C@H](OC)c2ccc(O)cc2)cc(OC)c1OC [Compound 11-F],27
6,COc1cc(/C=C/C(=O)NC[C@H](OC)c2ccc(O)cc2)cc(OC)c1O [Compound 11-G],−11
7,O=C(/C=C/c1ccccc1)NC[C@@H](O)c1ccccc1 [Compound 12-A],26
8,O=C(/C=C/c1ccc(O)cc1)NC[C@@H](O)c1ccccc1 [Compound 12-B],47
9,O=C(/C=C/c1ccc(O)c(O)c1)NC[C@@H](O)c1ccccc1 [Compound 12-C],27
10,COc1ccc(/C=C/C(=O)NC[C@@H](O)c2ccccc2)cc1O [Compound 12-E],28
11,COc1cc(/C=C/C(=O)NC[C@@H](O)c2ccccc2)cc(OC)c1OC [Compound 12-F],33
12,COc1cc(/C=C/C(=O)NC[C@@H](O)c2ccccc2)cc(OC)c1O [Compound 12-G],41
13,COc1cccc(/C=C/C(=O)NC[C@@H](O)c2ccccc2)c1 [Compound 12-H],51
14,O=C(/C=C/c1ccccc1)NC[C@@H](O)c1ccc(O)cc1 [Compound 13-A],43
15,O=C(/C=C/c1ccc(O)cc1)NC[C@@H](O)c1ccc(O)cc1 [Compound 13-B],49
16,O=C(/C=C/c1ccc(O)c(O)c1)NC[C@@H](O)c1ccc(O)cc1 [Compound 13-C],−36
17,COc1ccc(/C=C/C(=O)NC[C@@H](O)c2ccc(O)cc2)cc1O [Compound 13-E],43
18,COc1cc(/C=C/C(=O)NC[C@@H](O)c2ccc(O)cc2)cc(OC)c1OC [Compound 13-F],22
19,COc1cc(/C=C/C(=O)NC[C@@H](O)c2ccc(O)cc2)cc(OC)c1O [Compound 13-G],16
20,COc1cccc(/C=C/C(=O)NC[C@@H](O)c2ccc(O)cc2)c1 [Compound 13-H],43
21,COc1ccc([C@H](O)CNC(=O)/C=C/c2ccccc2)cc1 [Compound 14-A],28
22,COc1ccc([C@H](O)CNC(=O)/C=C/c2ccc(O)cc2)cc1 [Compound 14-B],27
23,COc1ccc([C@H](O)CNC(=O)/C=C/c2ccc(O)c(O)c2)cc1 [Compound 14-C],−15
24,COc1ccc([C@H](O)CNC(=O)/C=C/c2ccc(O)c(OC)c2)cc1 [Compound 14-D],59

row,Structure (SMILES),Induction of death in U-937 cells (percentages of cell death) [%]
1,COc1ccc([C@H](O)CNC(=O)/C=C/c2ccc(OC)c(O)c2)cc1 [Compound 14-E],35
2,COc1ccc([C@H](O)CNC(=O)/C=C/c2cc(OC)c(OC)c(OC)c2)cc1 [Compound 14-F],26
3,COc1ccc([C@H](O)CNC(=O)/C=C/c2cc(OC)c(O)c(OC)c2)cc1 [Compound 14-G],48
4,COc1ccc([C@H](O)CNC(=O)/C=C/c2cccc(OC)c2)cc1 [Compound 14-H],38
5,O=C(/C=C/c1ccccc1)NC[C@H](O)c1ccc(O)cc1 [Compound 15-A],27
6,O=C(/C=C/c1ccc(O)cc1)NC[C@H](O)c1ccc(O)cc1 [Compound 15-B],39
7,O=C(/C=C/c1ccc(O)c(O)c1)NC[C@H](O)c1ccc(O)cc1 [Compound 15-C],−29
8,COc1ccc(/C=C/C(=O)NC[C@H](O)c2ccc(O)cc2)cc1O [Compound 15-E],22
9,COc1cc(/C=C/C(=O)NC[C@H](O)c2ccc(O)cc2)cc(OC)c1OC [Compound 15-F],12
10,COc1cc(/C=C/C(=O)NC[C@H](O)c2ccc(O)cc2)cc(OC)c1O [Compound 15-G],47
11,COc1cccc(/C=C/C(=O)NC[C@H](O)c2ccc(O)cc2)c1 [Compound 15-H],24
12,O=C(/C=C/c1ccccc1)NCCc1ccccc1 [Compound 16-A],58
13,O=C(/C=C/c1ccc(O)cc1)NCCc1ccccc1 [Compound 16-B],66
14,O=C(/C=C/c1ccc(O)c(O)c1)NCCc1ccccc1 [Compound 16-C],24
15,COc1cc(/C=C/C(=O)NCCc2ccccc2)ccc1O [Compound 16-D],39
16,COc1ccc(/C=C/C(=O)NCCc2ccccc2)cc1O [Compound 16-E],60
17,COc1cc(/C=C/C(=O)NCCc2ccccc2)cc(OC)c1OC [Compound 16-F],30
18,COc1cc(/C=C/C(=O)NCCc2ccccc2)cc(OC)c1O [Compound 16-G],20
19,COc1cccc(/C=C/C(=O)NCCc2ccccc2)c1 [Compound 16-H],57
20,O=C(/C=C/c1ccccc1)NCCc1ccc(O)cc1 [Compound 17-A],48
21,O=C(/C=C/c1ccc(O)cc1)NCCc1ccc(O)cc1 [Compound 17-B],32
22,O=C(/C=C/c1ccc(O)c(O)c1)NCCc1ccc(O)cc1 [Compound 17-C],15
